pIC50: −log10 of the molar value. Like-named read-outs stand apart in the source and are kept apart here.
Assays:
ROCK1 = ROCK1 (Homo sapiens (Human), UniProt Q13464); assay: ROCK1 kinase inhibition assay (peptide phosphorylation, LABCHIP 3000); format: biochemical; conditions: 5 μM ATP, 3 nM ROCK1, 3 hours at 25° C.
Description: (§1) The peptide is phosphorylated by the protein kinase ROCK1 or ROCK2. The ROCK1 or ROCK2 enzyme, substrate, and cofactors (ATP and Mg^2+) are combined in a well of a microtiter plate and incubated for 3 hours at 25° C. in the presence or absence of an inhibitor compound. At the end of the incubation, the reaction is quenched by the addition of an EDTA-containing buffer. The substrate and product are separated and quantified electrophoretically using the microfluidic-based LABCHIP® 3000 Drug Discovery System from Caliper Life Sciences (Hopkinton, Mass.).
(§2) The components of the assay mixture are:
10 μM Sodium Orthovanadate
10 LM Beta-Glycerophosphate
(§3) 5 μM ATP (for ROCK1) or 7 μM ATP (for ROCK2)
3 nM ROCK1 or 2.5 nM ROCK2 enzyme
(§4) Substrate and product peptides present in each sample are separated electrophoretically using the LABCHIP® 3000 capillary electrophoresis instrument. […] Change in the relative fluorescence intensity of the substrate and product peaks is the parameter measured reflecting enzyme activity. Capillary electrophoregramms (RDA acquisition files) are analyzed using HTS Well Analyzer software (Caliper Life Sciences, Hopkinton, Mass.). The kinase activity in each sample is determined as the product to sum ratio (PSR): P/(S+P), where P is the peak height of the product peptide and S is the peak height of the substrate peptide. For each compound, enzyme activity is measured at various concentrations (12 concentrations of compound spaced by 3× dilution intervals). Negative control samples (0%-inhibition in the absence of inhibitor) and positive control samples (100%-inhibition in the presence of 20 mM EDTA) are assembled in replicates of four and are used to calculate %-inhibition values for each compound at each concentration. Percent inhibition (Pinh) is determined using the following equation: Pinh=(PSRO %−PSRinh)/(PSRO %−PSR100%)*100
(§5) where PSRinh is the product sum ratio in the presence of inhibitor, PSRO % is the average product sum ratio in the absence of inhibitor, and PSR100% is the average product sum ratio in 100%-inhibition control samples. The IC50 values of inhibitors are determined by fitting the inhibition curves (Pinh versus inhibitor concentration) by the 4-parameter sigmoidal dose-response model using XLfit 4 software (IBDS).

ROCK2 = ROCK2 (Homo sapiens (Human), UniProt O75116); assay: ROCK2 kinase inhibition assay (peptide phosphorylation, LABCHIP 3000); format: biochemical; conditions: 7 μM ATP, 2.5 nM ROCK2, 3 hours at 25° C.
Description: as §1, §2
10 μM Sodium Orthovanadate
10 LM Beta-Glycerophosphate
as §3
3 nM ROCK1 or 2.5 nM ROCK2 enzyme
as §4, §5

K562 cell line = assay: Cell viability assay ([…]-GLO), K562; format: cell-based; conditions: Homo sapiens; K562 (does not express ITD-FLT3), 72 hours treatment
Procedure, shortened: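 Cells seeded 2.5×10^3-5×10^3/well, grown 24 h, then exposed to compounds for 72 h. Viability read as ATP luminescence (CellTiter-Glo-type) after 37° C incubation; % growth = test/vehicle ×100. IC50 from sigmoidal dose-response fit.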

MV411 cell line = assay: Cell viability assay ([…]-GLO), MV411; format: cell-based; conditions: for pIC50: Homo sapiens, MV4-11, MV411 (ITD-FLT3+), 72 hours treatment; for FLT3-ITD+ Selectivity (K562/MV411): ratio K562/MV411
[1] = Pharmacokinetic activity in mice; format: in vivo; conditions: for AUC(0-t): read-out: AUC0-8
Description: Compounds were individually and accurately weighed out to produce a stock solution in Dimethyl-sulfoxide (DMSO) at a concentration of 2 mg/mL and stored at −20° C. From the stock solution, a working stock was prepared by diluting it in Methanol-Water 50:50 (v/v) at 20 μg/mL for calibration curve preparation and stored at 4° C. Standards used for quantitation and quality control samples (QCs) were prepared on the same day of sample processing using blank plasma obtained from non-treated mice. For each analyte, standards were prepared through serial dilutions of the working stock at concentrations of 0.1, 0.5, 1.0, 10, 50, 100, 500, and 1000 ng/mL; QCs were prepared at intermediate concentrations of 0.75, 7.5, 75, and 750 ng/mL. Plasma samples were stored at −80° C. until ready for analysis and then placed on ice for thawing. An aliquot of […] samples, standards, or QCs, were transferred into a 96-well extraction plate according to a pre-defined layout. An appropriate volume of Methanol-Formic Acid 99.9-0.1 containing internal standard (Verapamil at 25 ng/mL) was added to each well and the samples were extracted under vacuum. Eluent was then transferred into a LCMS plate for analysis using a suitable column for separation and MRM detection. Concentration of analytes was calculated based on the calibration curve and analyzed for pharmacokinetic parameters by using Non-compartmental analysis (NCA). Parameters such as Cmax, Tmax, half-life, AUC(0-last), AUC(0-∞), volume of distribution (Vss), and clearance (Cl/F) were reported.

ROCK1, sequence (Q13464 whole entry, species assumed): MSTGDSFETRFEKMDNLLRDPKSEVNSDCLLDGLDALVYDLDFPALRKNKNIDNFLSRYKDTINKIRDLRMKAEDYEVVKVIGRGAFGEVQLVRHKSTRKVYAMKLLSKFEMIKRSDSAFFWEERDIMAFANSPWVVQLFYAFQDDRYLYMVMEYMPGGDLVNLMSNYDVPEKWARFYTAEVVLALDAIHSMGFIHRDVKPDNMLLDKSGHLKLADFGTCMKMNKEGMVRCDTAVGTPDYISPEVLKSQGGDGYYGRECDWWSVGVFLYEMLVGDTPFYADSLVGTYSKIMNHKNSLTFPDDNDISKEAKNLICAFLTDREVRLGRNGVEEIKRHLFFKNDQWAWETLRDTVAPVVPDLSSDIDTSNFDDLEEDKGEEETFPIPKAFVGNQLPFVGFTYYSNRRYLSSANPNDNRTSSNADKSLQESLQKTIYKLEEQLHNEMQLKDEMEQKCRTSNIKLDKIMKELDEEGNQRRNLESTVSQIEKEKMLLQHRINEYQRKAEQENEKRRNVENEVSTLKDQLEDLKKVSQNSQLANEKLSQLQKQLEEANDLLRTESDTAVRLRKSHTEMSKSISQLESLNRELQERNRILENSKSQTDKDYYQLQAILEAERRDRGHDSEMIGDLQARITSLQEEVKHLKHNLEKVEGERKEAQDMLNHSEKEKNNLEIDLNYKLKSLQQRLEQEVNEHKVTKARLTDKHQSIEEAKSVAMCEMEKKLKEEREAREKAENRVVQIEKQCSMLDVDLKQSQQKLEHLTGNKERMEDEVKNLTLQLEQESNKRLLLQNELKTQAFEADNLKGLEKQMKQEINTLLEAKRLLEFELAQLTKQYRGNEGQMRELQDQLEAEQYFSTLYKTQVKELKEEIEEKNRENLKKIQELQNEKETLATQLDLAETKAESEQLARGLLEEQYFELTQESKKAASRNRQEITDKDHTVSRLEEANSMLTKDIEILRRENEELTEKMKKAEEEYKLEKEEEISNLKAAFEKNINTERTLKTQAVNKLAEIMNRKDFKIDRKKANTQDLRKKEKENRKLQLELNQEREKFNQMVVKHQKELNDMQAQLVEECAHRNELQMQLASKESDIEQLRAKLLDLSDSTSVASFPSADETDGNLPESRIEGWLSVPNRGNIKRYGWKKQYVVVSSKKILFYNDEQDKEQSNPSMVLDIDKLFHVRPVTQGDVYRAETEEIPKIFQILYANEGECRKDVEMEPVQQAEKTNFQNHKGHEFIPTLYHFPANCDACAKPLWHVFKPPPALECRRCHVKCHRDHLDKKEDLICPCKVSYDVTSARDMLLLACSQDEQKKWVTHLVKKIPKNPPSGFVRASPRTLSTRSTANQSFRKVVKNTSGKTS
ROCK2, sequence (O75116 whole entry, species assumed): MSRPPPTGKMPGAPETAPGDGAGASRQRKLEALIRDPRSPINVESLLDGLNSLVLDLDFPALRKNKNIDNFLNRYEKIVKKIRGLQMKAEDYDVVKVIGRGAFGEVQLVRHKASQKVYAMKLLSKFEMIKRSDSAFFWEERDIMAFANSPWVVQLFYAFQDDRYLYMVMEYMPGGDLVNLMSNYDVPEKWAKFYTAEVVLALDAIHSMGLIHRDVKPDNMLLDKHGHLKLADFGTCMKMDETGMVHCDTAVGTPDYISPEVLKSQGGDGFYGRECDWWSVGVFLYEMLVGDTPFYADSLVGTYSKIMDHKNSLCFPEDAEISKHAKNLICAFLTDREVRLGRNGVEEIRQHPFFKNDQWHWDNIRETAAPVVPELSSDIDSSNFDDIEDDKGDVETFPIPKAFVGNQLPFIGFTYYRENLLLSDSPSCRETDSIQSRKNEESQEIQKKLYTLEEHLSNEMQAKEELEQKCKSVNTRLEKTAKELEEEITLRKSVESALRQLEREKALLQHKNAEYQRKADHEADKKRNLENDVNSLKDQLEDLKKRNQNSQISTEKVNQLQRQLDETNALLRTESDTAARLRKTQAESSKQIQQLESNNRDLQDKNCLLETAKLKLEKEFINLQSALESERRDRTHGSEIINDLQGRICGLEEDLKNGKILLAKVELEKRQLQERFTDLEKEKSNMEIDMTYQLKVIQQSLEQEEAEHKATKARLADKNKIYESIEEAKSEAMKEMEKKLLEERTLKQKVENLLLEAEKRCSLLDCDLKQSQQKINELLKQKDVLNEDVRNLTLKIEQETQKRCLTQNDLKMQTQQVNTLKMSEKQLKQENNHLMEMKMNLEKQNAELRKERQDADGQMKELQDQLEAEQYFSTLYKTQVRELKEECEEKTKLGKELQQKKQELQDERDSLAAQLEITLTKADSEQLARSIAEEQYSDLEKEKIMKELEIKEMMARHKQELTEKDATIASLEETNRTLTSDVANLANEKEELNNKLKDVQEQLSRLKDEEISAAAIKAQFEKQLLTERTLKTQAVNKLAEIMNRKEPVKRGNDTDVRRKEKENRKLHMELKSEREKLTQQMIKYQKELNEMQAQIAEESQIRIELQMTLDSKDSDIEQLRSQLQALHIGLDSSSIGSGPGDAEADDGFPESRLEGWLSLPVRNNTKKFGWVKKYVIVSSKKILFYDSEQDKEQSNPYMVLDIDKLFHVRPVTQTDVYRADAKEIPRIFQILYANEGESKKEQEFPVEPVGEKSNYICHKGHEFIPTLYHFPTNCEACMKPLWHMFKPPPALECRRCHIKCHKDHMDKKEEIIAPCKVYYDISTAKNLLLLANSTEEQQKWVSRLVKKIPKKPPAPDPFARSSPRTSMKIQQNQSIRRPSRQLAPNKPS

Compound	pIC50 (ROCK1)	pIC50 (ROCK2)	pIC50 (K562 cell line)	pIC50 (MV411 cell line)	FLT3-ITD+ Selectivity (K562/MV411) (MV411 cell line)	also measured
O=C(NCC1CCC(F)(F)CC1)c1cccc([C@@H](CO)NC(=O)c2ccc(-c3ccncc3)cc2)c1 [Compound 24]	8.66	8.92	4.55	5.82	19	
Cn1ccc2ccc(NC(=O)c3cccc([C@@H](CO)NC(=O)c4ccc(-c5ccncc5)cc4)c3)cc2c1=O [Compound 28]	8.80	8.96	< 4.00	5.62	>42	
O=C(NCC1CCCCC1)c1cccc([C@@H](CO)NC(=O)c2ccc(-c3ccncc3)cc2)c1 [Compound 21]	8.51	9.00	4.41	5.68	19	
CN(C)Cc1ccc(CNC(=O)c2cccc([C@@H](CO)NC(=O)c3ccc(-c4ccncc4)cc3)c2)cc1 [Compound 32]	8.85	9.05	4.43	7.22	619	
O=C(COc1cccc(CNC(=O)c2ccc(-c3ccncc3)cc2)c1)NC1CC1 [Compound 3]	7.41	7.85	< 4.00	5.62	>42	
CN1CCn2nc(NC(=O)c3cccc(CNC(=O)c4ccc(-c5ccncc5)cc4)c3)cc2C1 [Compound 1]	7.94	8.22	< 4.00	5.05	>11	
O=C(NC1CCCC1)c1cccc([C@@H](CO)NC(=O)c2cccc(-c3ccncc3)c2)c1 [Compound 63]	7.85	8.39	< 4.00	6.85	>721	
O=C(NC1CCCC1)c1cccc([C@@H](CO)NC(=O)c2ccc(-c3ccncc3)cc2)c1 [Compound 10]	8.32	9.06	4.77	6.77	100	AUC % Extrap ([1]; IV - 1 mg/kg): 0.39%; Cl/F obs ([1]; IV - 1 mg/kg): 2.83 mL/min/kg; R-sq ([1]; IV - 1 mg/kg): 0.90; AUC % Extrap ([1]; PO - 5 mg/kg): 0.09%; R-sq ([1]; PO - 5 mg/kg): 0.93; AUC(0-inf) ([1]; mouse, plasma, IV - 1 mg/kg): 5370 ng·h/mL; C0 ([1]; mouse, plasma, IV - 1 mg/kg): 7000 ng/mL; Cmax ([1]; mouse, plasma, IV - 1 mg/kg): 4180 ng/mL; Tmax ([1]; mouse, plasma, IV - 1 mg/kg): 0.25 h; half-life ([1]; mouse, plasma, IV - 1 mg/kg): 3.86 h; AUC(0-t) ([1]; mouse, plasma, IV - 1 mg/kg): 5350 ng·h/mL; Vd ([1]; mouse, plasma, IV - 1 mg/kg, read-out: Vss): 0.32 L/kg; AUC(0-inf) ([1]; mouse, plasma, PO - 5 mg/kg): 51500 ng·h/mL; CL/F ([1]; mouse, plasma, PO - 5 mg/kg): 1.5 mL/min/kg; Cmax ([1]; mouse, plasma, PO - 5 mg/kg): 13100 ng/mL; Tmax ([1]; mouse, plasma, PO - 5 mg/kg): 1 h; half-life ([1]; mouse, plasma, PO - 5 mg/kg): 2.32 h; bioavailability ([1]; mouse, plasma, PO - 5 mg/kg vs IV - 1 mg/kg): > 100%; AUC(0-t) ([1]; mouse, plasma, PO - 5 mg/kg): 51400 ng·h/mL; Vd/F ([1]; mouse, plasma, PO - 5 mg/kg, read-out: Vz/F obs): 0.3 L/kg
O=C(NC1CCCCC1)c1cccc([C@@H](CO)NC(=O)c2ccc(-c3ccncc3)cc2)c1 [Compound 26]	8.43	8.82	4.32	5.13	6	
Cc1ccc(-c2ccncc2)cc1C(=O)N[C@H](CO)c1cccc(C(=O)NC2CCCC2)c1 [Compound 64]	7.77	8.28	< 4.00	5.83	>68	

Further lines, with some results ahead:

pIC50 (ROCK1)	pIC50 (ROCK2)	pIC50 (K562 cell line)	pIC50 (MV411 cell line)	Compound	FLT3-ITD+ Selectivity (K562/MV411) (MV411 cell line)	also measured
8.00	8.06	4.70	5.89	CN1CCc2ccc(NC(=O)c3cccc(CNC(=O)c4ccc(-c5ccncc5)cc4)c3)cc2C1 [Compound B, reference compound]	15	
8.82	9.28	5.10	6.85	CCOc1cc(-c2cn[nH]c2)ccc1C(=O)N[C@H](C)c1cccc(C(=O)NC2CCCC2)c1 [Compound 103]	59	
8.70	9.19	< 4.00	6.21	CN(C)Cc1cccc(CNC(=O)c2cccc([C@@H](CO)NC(=O)c3ccc(-c4cn[nH]c4)cc3)c2)c1 [Compound 82]	166	
8.49	9.06	< 4.00	6.92	COc1cc(-c2cn[nH]c2)ccc1C(=O)N[C@H](CO)c1cccc(C(=O)NC2CCCC2)c1 [Compound 81]	833	
8.42	9.05	4.07	6.51	CCc1ccc(-c2ccncc2)cc1C(=O)N[C@H](CO)c1cccc(C(=O)NC2CCCC2)c1 [Compound 70]	275	
8.68	9.03	< 4.00	7.70	COC(=O)N1CCC(NC(=O)c2cccc([C@@H](CO)NC(=O)c3ccc(-c4ccncc4)cc3)c2)CC1 [Compound 77]	>5000	
8.77	9.24	< 4.00	7.52	COC(=O)N1CCC(CNC(=O)c2cccc([C@@H](CO)NC(=O)c3ccc(-c4ccncc4)cc3)c2)CC1 [Compound 78]	>3333	
8.41	8.99	4.35	6.62	COCCOc1cc(-c2cn[nH]c2)ccc1C(=O)N[C@H](C)c1cccc(C(=O)NC2CCCC2)c1 [Compound 115]	188	
